Residue numbers refer to the chain shown, from its start.
Legend:
[1] = molecular target: T1, HEK-293 cells expressing a G810R mutant RET Kif5b-RET fusion protein (Homo sapiens, UniProt P07949, G810R); test: RET G810R Mutant Cell Assay (phospho-RET Tyr1062); format: cell-based; details: HEK-293 Kif5b-RET G810R, 1 hour incubation, phospho-RET normalized to GAPDH
T1 construct: KIF5B (N-terminal portion incl. coiled-coil); expressed in transfected cells; host or cells: HEK-293; the other entry of the earlier key: KIF5B (P33176, Kinesin-1 heavy chain)
T1 sequence (P07949 713-1063 G810R limits assumed): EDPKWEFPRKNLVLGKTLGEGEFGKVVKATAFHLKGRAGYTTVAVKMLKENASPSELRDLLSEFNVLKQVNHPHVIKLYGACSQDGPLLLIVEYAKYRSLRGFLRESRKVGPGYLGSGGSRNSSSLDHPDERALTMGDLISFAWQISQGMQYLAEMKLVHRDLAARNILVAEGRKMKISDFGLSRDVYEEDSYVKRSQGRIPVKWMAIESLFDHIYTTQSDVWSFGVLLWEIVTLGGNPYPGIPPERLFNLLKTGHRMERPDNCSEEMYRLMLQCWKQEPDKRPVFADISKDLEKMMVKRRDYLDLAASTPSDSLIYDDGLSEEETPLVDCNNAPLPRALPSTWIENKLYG
How it was run: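 Signals came from in-cell immunostaining of fixed, methanol-permeabilized HEK-293 fusion-expressing cells exposed 1 h to compound in DMEM with 0.5% DMSO.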

[2] = molecular target: RET kinase V804M (Homo sapiens, UniProt P07949, V804M); test: RET Enzyme Assay (CisBio HTRF KinEASE-TK), V804M; format: biochemical; details: read-out: RET V804M Enz FRET IC50
Sequence of RET kinase V804M (P07949 29-1114 V804M): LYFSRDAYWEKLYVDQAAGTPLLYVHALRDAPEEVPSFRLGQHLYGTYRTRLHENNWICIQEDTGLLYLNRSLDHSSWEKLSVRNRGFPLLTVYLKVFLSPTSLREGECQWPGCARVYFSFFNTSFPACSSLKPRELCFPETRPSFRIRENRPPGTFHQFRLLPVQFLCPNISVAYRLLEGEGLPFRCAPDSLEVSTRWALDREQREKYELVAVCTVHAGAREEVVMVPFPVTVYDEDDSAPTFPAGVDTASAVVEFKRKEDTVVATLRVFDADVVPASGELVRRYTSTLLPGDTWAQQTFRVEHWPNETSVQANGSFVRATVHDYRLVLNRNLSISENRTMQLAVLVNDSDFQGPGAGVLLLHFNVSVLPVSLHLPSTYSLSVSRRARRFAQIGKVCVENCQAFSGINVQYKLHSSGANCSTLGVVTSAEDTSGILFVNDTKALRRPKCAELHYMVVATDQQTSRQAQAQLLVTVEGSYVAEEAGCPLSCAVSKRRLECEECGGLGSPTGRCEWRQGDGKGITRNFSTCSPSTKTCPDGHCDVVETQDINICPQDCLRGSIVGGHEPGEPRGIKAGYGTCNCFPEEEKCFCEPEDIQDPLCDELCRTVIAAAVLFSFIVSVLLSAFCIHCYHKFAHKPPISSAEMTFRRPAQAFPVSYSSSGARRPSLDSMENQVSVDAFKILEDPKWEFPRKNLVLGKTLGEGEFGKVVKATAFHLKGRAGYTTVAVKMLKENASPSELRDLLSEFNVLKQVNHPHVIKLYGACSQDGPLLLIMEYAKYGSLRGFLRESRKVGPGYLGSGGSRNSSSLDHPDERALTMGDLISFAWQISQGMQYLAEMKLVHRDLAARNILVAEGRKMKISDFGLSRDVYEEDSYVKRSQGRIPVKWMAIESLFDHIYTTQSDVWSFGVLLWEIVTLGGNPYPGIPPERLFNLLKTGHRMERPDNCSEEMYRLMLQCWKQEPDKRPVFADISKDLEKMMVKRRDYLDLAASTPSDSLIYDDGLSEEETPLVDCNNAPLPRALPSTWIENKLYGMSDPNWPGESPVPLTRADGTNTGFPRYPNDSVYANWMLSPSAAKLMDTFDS
Procedure: (§1) The potency of compounds inhibiting several different RET kinase forms (Wild Type, V804M, G810R, & G810S) were determined using CisBio's HTRF® KinEASE™-TK assay technology. […] After a 1 hour incubation at 22° C., the extent of reaction was determined using a PerkinElmer EnVision multimode plate reader via HTRF dual wavelength detection, and the percent of control (POC) was calculated using a ratiometric emission factor. One hundred POC was determined using DMSO only samples (no compound present), and 0 POC was determined using pre-quenched control reactions.

[3] = molecular target: RET kinase Wild Type (Homo sapiens, UniProt P07949); test: biochemical;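 note: HTRF kinase activity assay on RET enzyme, 1 h reaction at 22 °C, dual-wavelength readout as percent of control, DMSO-only wells as 100%, pre-quenched reactions as 0%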
Sequence of RET kinase Wild Type (P07949 29-1114): as the sequence (P07949 29-1114 V804M) above, with M776V counted along it
Procedure: as §1

[4] = molecular target: T2, HEK-293 cells expressing a G810S mutant RET Kif5b-RET fusion protein (Homo sapiens, UniProt P07949, G810S); test: RET G810S Mutant Cell Assay (phospho-RET Tyr1062); format: cell-based; details: HEK-293 Kif5b-RET G810S, 1 hour incubation, phospho-RET normalized to GAPDH
T2 construct: KIF5B (N-terminal portion incl. coiled-coil); expressed in transfected cells; host or cells: HEK-293
T2 sequence (P07949 713-1063 G810S limits assumed): T1 sequence (P07949 713-1063 G810R limits assumed) with R98S
Procedure: The cellular potency of compounds inhibiting RET kinase were determined in HEK-293 cells expressing a G810R or G810S mutant RET Kif5b-RET fusion protein. Briefly, HEK-293 cells expressing a G810R or G810S mutant RET Kif5b-RET fusion protein were plated at 50K cells/well in 96 well poly-D-Lysine coated plates the day prior to the assay. The cells were incubated for 1 hour with test compound in DMEM (Dulbecco's Modified Eagle Medium) at a final DMSO concentration of 0.5%. […] After 1 hour the media was removed, the cells were fixed with 3.8% formaldehyde for 20 min, washed with PBS, and permeabilized for 10 min with 100% methanol. The plates were then washed with PBS-0.05% Tween20, and blocked with LI-COR Blocking solution (LI-COR Catalog No. 927-40000) for 1 hour. Plates were washed with PBS-0.05% Tween20, then incubated with anti-phospho-RET (Tyr1062) (Santa Cruz Catalog No. sc-20252-R) antibody and anti-GAPDH (Millipore Catalog No. MAB374) antibody for 2 hours. The plates were washed with PBS-0.05% Tween20, and incubated with anti-rabbit 680 (Molecular Probes Catalog No. A21109) and anti-mouse 800 (LI-COR Catalog No. 926-32210) secondary antibodies for 1 hour. All antibodies were diluted in LI-COR Block containing 0.05% Tween. The plates were washed with PBS-0.05% Tween20,100 μL PBS was added to each well, and the plates were read on a LI-COR Aerius fluorescent plate reader. The phospho-RET signal was normalized to the GAPDH signal. […] The POC values are fit to a 4 parameter logistic curve. The IC50 value is the point where the curve crosses 50 POC.

[5] = molecular target: T3, HEK-293 cells expressing a Kif5b-RET fusion protein (Homo sapiens, UniProt P07949); test: RET Cell Assay (phospho-RET Tyr1062); format: cell-based; details: HEK-293 Kif5b-RET, 1 hour incubation, phospho-RET normalized to GAPDH; read-out: KIF5B-RET pTYR1062 Cell IC50
T3 construct: KIF5B (N-terminal portion incl. coiled-coil); expressed in transfected cells; host or cells: HEK-293; the other entry of the earlier key: KIF5B (P33176, Kinesin-1 heavy chain)
T3 sequence (P07949 713-1063 limits assumed): T1 sequence (P07949 713-1063 G810R limits assumed) with R98G
How it was run: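 Phospho-RET (Tyr1062) to GAPDH ratio read by in-cell fluorescent immunodetection after 1 hour compound exposure in DMEM, 0.5% DMSO. Cells: HEK-293 carrying Kif5b-RET fusion. POC data fit to a 4-parameter logistic curve, IC50 taken at 50 POC.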

[6] = molecular target: G810S mutant RET kinase (Homo sapiens, UniProt P07949, G810S); test: biochemical;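 note: HTRF KinEASE-TK kinase assay with recombinant enzyme, 1 h at 22 °C, dual-wavelength ratiometric read-out, percent of control (DMSO-only = 100, pre-quenched reaction = 0)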
Sequence of G810S mutant RET kinase (P07949 29-1114 G810S): as the sequence (P07949 29-1114 V804M) above, with M776V, G782S counted along it

[7] = molecular target: G810R mutant RET kinase (Homo sapiens, UniProt P07949, G810R); test: biochemical;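 note: HTRF KinEASE-TK enzymatic assay with 1 nM recombinant RET G810R, 1 h at 22 °C, dual-wavelength ratiometric readout, 100% control without compound, 0% from pre-quenched reactions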
Sequence of G810R mutant RET kinase (P07949 29-1114 G810R): as the sequence (P07949 29-1114 V804M) above, with M776V, G782R counted along it
Procedure: as §1
The potency of a compound inhibiting G810R or G810S mutant RET kinase was determined using CisBio's HTRF® KinEASE™-TK assay technology. The assays contained G810R or G810S mutant RET produced at Array Biopharma, Inc. (1 nM enzyme). […] After a 1-h incubation at 22° C., the extent of reaction was determined using a PerkinElmer EnVision multimode plate reader via HTRF dual wavelength detection, and the percent of control (POC) was calculated using a ratiometric emission factor. One hundred POC was determined using no test compounds, and 0 POC was determined using pre-quenched control reactions.

Row | IC50 [1] | IC50 [2] | IC50 [3] | IC50 [4] | IC50 [5] | IC50 [6] | IC50 [7] | SMILES
1 | 0.119 µM | 0.182 µM | 0.039 µM | 0.09 µM | 0.047 µM | 0.076 µM | 0.169 µM | CC(C)n1c2c(c3c(N)ncnc31)-c1noc(C3CC3)c1[C@@H](O)[C@H](C)C2 (single isomer, unassigned) [Example 64]
2 | 0.113 µM | 0.027 µM | 0.009 µM | 0.057 µM | 0.014 µM | 0.055 µM | 0.086 µM | CO[C@@H]1CCc2c(c3c(N)ncnc3n2C2(C)CC2)-c2noc(C3CC3)c21 [Example 151, (R)-3-Cyclopropyl-4-methoxy-7-(1-methylcyclopropyl)-4,5,6,7-tetrahydroisoxazolo[4″,3″:6′,7]cyclohepta[1′,2′:4,5]pyrrolo[2,3-d]pyrimidin-11-amine]
3 | 0.03 µM | 0.041 µM | 0.014 µM | 0.06 µM | 0.014 µM | 0.018 µM | 0.097 µM | CC(n1c2c(c3c(N)ncnc31)-c1noc(C3CC3)c1C(O)CC2)C(F)(F)F (centres unmarked) [Example 131, 11-Amino-3-cyclopropyl-7-(1,1,1-trifluoropropan-2-yl)-4,5,6,7-tetrahydroisoxazolo[4″,3″:6′,7′]cyclohepta[1′,2′:4,5]pyrrolo[2,3-d]pyrimidin-4-ol]
4 | 0.071 µM | 0.026 µM | 0.008 µM | 0.037 µM | 0.012 µM | 0.025 µM | 0.027 µM | CC(C)n1c2c(c3c(N)ncnc31)-c1noc(C3CC3)c1C(O)CC2 (racemic) [Example 29, 11-amino-3-cyclopropyl-7-isopropyl-4,5,6,7-tetrahydroisoxazolo[4″,3″:6′,7′]cyclohepta[1′,2′:4,5]pyrrolo[2,3-d]pyrimidin-4-ol]
5 | 0.133 µM | 0.189 µM | 0.018 µM | 0.107 µM | 0.02 µM | 0.054 µM | 0.063 µM | CC(C)n1c2c(c3c(N)ncnc31)-c1noc(C3CC3)c1S(=O)(=O)CC2 [Example 23, 11-amino-3-cyclopropyl-7-isopropyl-6,7-dihydro-5H-isoxazolo[4″,3″:2′,3′]thiepino[4′,5′:4,5]pyrrolo[2,3-d]pyrimidine 4,4-dioxide 2,2,2-trifluoroacetate]
6 | 0.157 µM | 0.098 µM | 0.021 µM | 0.101 µM | 0.029 µM | 0.04 µM | 0.045 µM | CC1Cc2c(c3c(N)ncnc3n2C(C)C)-c2noc(C3CC3)c2C1=O (centres unmarked) [Example 60, 11-amino-3-cyclopropyl-7-isopropyl-5-methyl-6,7-dihydroisoxazolo[4″,3″:6′,7′]cyclohepta[1′,2′:4,5]pyrrolo[2,3-d]pyrimidin-4(5H)-one]
7 | 0.144 µM | 0.235 µM | 0.058 µM | 0.255 µM | 0.053 µM | 0.217 µM | 0.13 µM | CC(=O)N1Cc2c(noc2C2CC2)-c2c(n(C(C)C)c3ncnc(N)c23)C1 [Example 36, 1-(11-amino-3-cyclopropyl-7-isopropyl-6,7-dihydroisoxazolo[4,3-c]pyrimido[5′,4′:4,5]pyrrolo[3,2-e]azepin-5(4H)-yl)ethan-1-one 2,2,2-trifluoroacetate]
8 | 0.057 µM | 0.021 µM | 0.006 µM | 0.052 µM | 0.009 µM | 0.023 µM | 0.028 µM | Nc1ncnc2c1c1c(n2C(CF)CF)CC[C@@H](O)c2c-1noc2C1CC1 (single isomer, unassigned) [Example 127]
9 | 0.087 µM | 0.044 µM | 0.009 µM | 0.083 µM | 0.028 µM |  | 0.031 µM | CC(C)n1c2c(c3c(N)ncnc31)-c1noc(C3CC3)c1S(=O)(=O)NC2 [Example 21, 11-amino-3-cyclopropyl-7-isopropyl-6,7-dihydro-5H-isoxazolo[3,4-f]pyrimido[5′,4′:4,5]pyrrolo[2,3-d][1,2]thiazepine 4,4-dioxide 2,2,2-trifluoroacetate]
10 | 0.142 µM |  | 0.027 µM | 0.116 µM | 0.085 µM | 0.393 µM | 0.187 µM | COCCn1ccc(NC(=O)c2ccc3cc4n(c3c2)CCCc2c-4c3c(N)ncnc3n2C(C)C)n1 [Example 96, 1-amino-5-isopropyl-N-(1-(2-methoxyethyl)-1H-pyrazol-3-yl)-5,6,7,8-tetrahydropyrimido[5″,4″:4′,5′]pyrrolo[3′,2′: 3,4]azepino[1,2-a]indole-11-carboxamide]
11 | 0.845 µM |  | 0.117 µM | 0.57 µM | 0.143 µM | 0.292 µM | 0.118 µM | CC(C)n1c2c(c3c(N)ncnc31)-c1cc3ccc(C#N)cc3n1C(=O)NC2 [Example 76, 1-amino-5-isopropyl-8-oxo-5,6,7,8-tetrahydropyrimido[5″,4″:4′,5′]pyrrolo[2′,3′:5,6][1,3]diazepino[1,7-a]indole-11-carbonitrile]
12 | 1.06 µM |  | 0.063 µM | 0.812 µM | 0.293 µM | 0.097 µM | 0.058 µM | CC(C)n1c2c(c3c(N)ncnc31)-c1cc3c(F)cccc3n1C(=O)NC2 [Example 83, 1-amino-13-fluoro-5-isopropyl-6,7-dihydropyrimido[5″,4″:4′,5′]pyrrolo[2′,3′: 5,6][1,3]diazepino[1,7-a]indol-8(5H)-one]
13 | 0.075 µM |  | 0.135 µM | 0.062 µM | 0.043 µM | 0.805 µM | 1.42 µM | CC(C)n1c2c(c3c(N)ncnc31)-c1cc3ccc(C(=O)Nc4ccn(CCC(F)(F)F)n4)cc3n1CCC2 [Example 101, 1-amino-5-isopropyl-N-(1-(3,3,3-trifluoropropyl)-1H-pyrazol-3-yl)-5,6,7,8-tetrahydropyrimido[5″,4″:4′,5′]pyrrolo[3′,2′: 3,4]azepino[1,2-a]indole-11-carboxamide]

Source: US11964988B2, “Fused heterocyclic compounds as RET kinase inhibitors” (ARRAY BIOPHARMA INC., priority 2018, dated 2024)
